In paper PMC8454703 (Biochemical Journal, 2021) one finds Kd data, which are given here for one compound.

Structures are written as SMILES. Substitutions are numbered along the chain they refer to. Some results are limits rather than exact numbers.

By Kd is commonly meant the concentration at which binding is half-saturated. The low end stands for higher affinity, the high end for lower affinity.

Common to all, as to experiment: SPR, protein over lipid vesicles on L1 chip
What all share (type): binding
A general note: SPR reads the build-up and loss of mass on a sensor chip optically.

Assay [1] has as its target T1, sTIM-3 (Homo sapiens, UniProt Q8TDQ0).
T1 sequence (Q8TDQ0 22-202 limits assumed): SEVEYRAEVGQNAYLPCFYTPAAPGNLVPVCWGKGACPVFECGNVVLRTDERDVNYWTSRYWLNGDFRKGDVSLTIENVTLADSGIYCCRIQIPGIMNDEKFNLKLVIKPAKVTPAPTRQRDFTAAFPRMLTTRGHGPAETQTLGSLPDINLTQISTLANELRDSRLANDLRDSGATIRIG

The target of a further assay is T2, sTIM-4 (Homo sapiens, UniProt Q96H15).
T2 sequence (Q96H15 25-314 limits assumed): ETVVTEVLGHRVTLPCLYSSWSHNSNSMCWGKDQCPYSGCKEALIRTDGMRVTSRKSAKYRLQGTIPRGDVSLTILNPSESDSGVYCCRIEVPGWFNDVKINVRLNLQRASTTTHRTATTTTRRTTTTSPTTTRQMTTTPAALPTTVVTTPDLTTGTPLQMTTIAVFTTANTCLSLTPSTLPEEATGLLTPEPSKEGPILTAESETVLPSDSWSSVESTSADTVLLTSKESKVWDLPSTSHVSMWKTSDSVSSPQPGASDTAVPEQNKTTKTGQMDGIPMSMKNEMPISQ

In assay [2] the target is T3, sTIM-3 (Homo sapiens, UniProt Q8TDQ0, F61A).
T3 sequence (Q8TDQ0 22-202 F61A limits assumed): T1 sequence (Q8TDQ0 22-202 limits assumed) with F40A

The target of assay [3] is T4, sTIM-3 (Homo sapiens, UniProt Q8TDQ0, I117A/M118A).
T4 sequence (Q8TDQ0 22-202 I117A/M118A limits assumed): T1 sequence (Q8TDQ0 22-202 limits assumed) with I96A, M97A

The target in another assay is T5, sTIM-1 (Homo sapiens, UniProt Q96D42).
T5 sequence (Q96D42 21-295 limits assumed): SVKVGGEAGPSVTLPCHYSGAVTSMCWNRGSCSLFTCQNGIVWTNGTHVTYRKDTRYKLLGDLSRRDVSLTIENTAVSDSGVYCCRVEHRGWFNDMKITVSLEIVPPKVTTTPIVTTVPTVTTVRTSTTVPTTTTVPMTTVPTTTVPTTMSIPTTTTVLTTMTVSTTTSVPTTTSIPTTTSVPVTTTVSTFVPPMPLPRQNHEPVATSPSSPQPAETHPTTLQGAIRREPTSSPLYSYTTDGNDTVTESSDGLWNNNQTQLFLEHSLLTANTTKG

Regarding `CCCCCCCC/C=C\CCCCCCCC(=O)OC[C@H](COP(=O)(O)OC[C@H](N)C(=O)O)OC(=O)CCCCCCC/C=C\CCCCCCCC` [DOPS], the dissociation constant Kd was 9.7 ± 4.2 µM on sTIM-3 [1]; 0.77 ± 0.32 µM on sTIM-4; more than 200 µM on sTIM-3 [2]; more than 200 µM on sTIM-3 [3]; 0.35 ± 0.05 µM at sTIM-1.
